# According to patent US12667572B2, “Tricyclic compounds useful in the treatment of cancer, autoimmune and inflammatory disorders” (SCHRÖDINGER, INC., priority 2021, dated 2026):
# Biological target: T1, full-length MALT1 protein His-MALT1(1-824) (Homo sapiens, UniProt Q9UDY8)
# T1 construct: full-length MALT1 protein His-MALT1(1-824); His (N); made in house; host or cells: baculovirus-infected insect cells
# T1 sequence (Q9UDY8 1-824): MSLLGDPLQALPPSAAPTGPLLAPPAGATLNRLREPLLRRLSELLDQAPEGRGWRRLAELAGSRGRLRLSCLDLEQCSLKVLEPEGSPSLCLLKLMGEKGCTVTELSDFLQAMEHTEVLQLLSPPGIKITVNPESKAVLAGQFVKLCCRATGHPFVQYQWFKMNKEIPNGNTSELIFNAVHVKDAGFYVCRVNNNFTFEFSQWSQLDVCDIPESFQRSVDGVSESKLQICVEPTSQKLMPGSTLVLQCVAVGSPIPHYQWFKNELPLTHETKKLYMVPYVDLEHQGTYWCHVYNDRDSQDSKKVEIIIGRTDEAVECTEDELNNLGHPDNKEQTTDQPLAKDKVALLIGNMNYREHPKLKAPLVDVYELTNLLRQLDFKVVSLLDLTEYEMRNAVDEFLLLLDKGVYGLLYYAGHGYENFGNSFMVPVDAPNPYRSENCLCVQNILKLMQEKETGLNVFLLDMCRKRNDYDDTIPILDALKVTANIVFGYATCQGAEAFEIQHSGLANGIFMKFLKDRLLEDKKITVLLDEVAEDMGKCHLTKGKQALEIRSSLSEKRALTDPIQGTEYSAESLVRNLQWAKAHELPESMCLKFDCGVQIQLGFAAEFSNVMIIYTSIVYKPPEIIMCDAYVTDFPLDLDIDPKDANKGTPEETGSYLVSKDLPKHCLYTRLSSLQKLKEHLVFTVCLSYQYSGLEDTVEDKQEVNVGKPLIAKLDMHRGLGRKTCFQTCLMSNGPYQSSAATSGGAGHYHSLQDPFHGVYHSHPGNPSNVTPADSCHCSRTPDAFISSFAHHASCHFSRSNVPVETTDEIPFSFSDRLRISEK
# Experiment: MALT1 protease assay, Assay 2 (1 nM MALT1, Ac-LRSR-AMC substrate)
# Assay type: biochemical
# Details: 1 nM MALT1, 50 μM Ac-LRSR-AMC, 2 h pre-incubation, 8 hr incubation at RT
# Procedure: MALT1 protease activity was assessed in an in vitro assay using a tetrapeptide as substrate and full-length MALT1 protein His-MALT1(1-824) purified from baculovirus-infected insect cells. The tetrapeptide substrate is Ac-LRSR-AMC (SM Biochemicals) with Km measured at around 100 μM.
# The final assay buffer includes 1 nM (Assay 2) or 2 nM (Assay 1) of MALT1 full-length protein, 50 μM Ac-LRSR-AMC substrate, 50 mM Tris pH 7.5, 600 mM Sodium Citrate, 1 mM DTT, 1 mM EDTA, and 0.05% BSA in 384-well plate format using black microtiter square well plates (Optiplate 384-F, Perkin Elmer).
# Test compounds were dissolved in 100% DMSO at stock of 10 mM, with final DMSO concentration 0.1%. Test compounds were pre-incubated with MALT1 protein for 2 h at room temperature. Substrate was added after the pre-incubation and fluorescence signal was measured using Envision at excitation 355 nm and emission 460 nm after 8 hr incubation at RT. Increase in the assay signal was linear over this period and proportional with increase in the enzyme content.
# The fluorescence units were transformed to percentage of remaining activity by using the high control (HC, median of fluorescence signal from wells containing MALT1 protein, substrate, and DMSO) and low control (LC, median of fluorescence signal from wells with substrate only) with the formula below: […]
# IC50 and Hill coefficients were obtained using Graph Pad Prism (Graph Pad software, Inc, USA) with non-linear regression analysis.
row,SMILES,IC50
1,"CC(C)(O)c1ncc(NC(=O)[C@@H]2CC3(CCC3)c3c2cnc2cc(F)nn32)cc1Cl (single isomer, unassigned) [Example 104, N-(5-chloro-6-(2-hydroxypropan-2-yl)pyridin-3-yl)-2′-fluoro-6′,7′-dihydrospiro[cyclobutane-1,8′-cyclopenta[e]pyrazolo[1,5-a]pyrimidine]-6′-carboxamide]",≥ 1000 nM
2,"CC1(C)C[C@@H](C(=O)Nc2cnc(-n3nccn3)c(C(F)(F)F)c2)c2cnn3cc(Cl)nc3c21 (single isomer, unassigned) [Example 192, N-(6-(2H-1,2,3-triazol-2-yl)-5-(trifluoromethyl)pyridin-3-yl)-2-chloro-9,9-dimethyl-8,9-dihydro-7H-cyclopenta[d]imidazo[1,2-b]pyridazine-7-carboxamide]",100 to 1000 nM
3,"CC1(C)CC(C(=O)Nc2cnc(OC(F)F)c(C#N)c2)c2cnn3cc(C(F)F)nc3c21 (single isomer, unassigned) [Example 199, N-(5-cyano-6-(difluoromethoxy)pyridin-3-yl)-2-(difluoromethyl)-9,9-dimethyl-8,9-dihydro-7H-cyclopenta[d]imidazo[1,2-b]pyridazine-7-carboxamide]",10 to 100 nM
4,"O=C(Nc1cnc([C@H](O)C(F)F)c(Cl)c1)[C@H]1CC2(CCC2)c2c1cnc1cc(F)nn21 (single isomer, unassigned) [Example 136, N-(5-chloro-6-(2,2-difluoro-1-hydroxyethyl)pyridin-3-yl)-2′-fluoro-6′,7′-dihydrospiro[cyclobutane-1,8′-cyclopenta[e]pyrazolo[1,5-a]pyrimidine]-6′-carboxamide]",100 to 1000 nM
5,"O=C(Nc1cnc([C@@H](O)C(F)F)c(Cl)c1)[C@H]1CC2(CCC2)c2c1cnc1cc(F)nn21 (single isomer, unassigned) [Example 135, N-(5-chloro-6-(2,2-difluoro-1-hydroxyethyl)pyridin-3-yl)-2′-fluoro-6′,7′-dihydrospiro[cyclobutane-1,8′-cyclopenta[e]pyrazolo[1,5-a]pyrimidine]-6′-carboxamide]",100 to 1000 nM
6,"CC1(C)C[C@H](C(=O)Nc2cnc(C(=O)NC3CC3)c(C(F)F)c2)c2cnc3cc(Cl)nn3c21 (single isomer, unassigned) [Example 173]",10 to 100 nM
7,"CC1(C)C[C@@H](C(=O)Nc2cc(C#N)c(OC(F)F)cn2)c2cnc3cc(F)nn3c21 (single isomer, unassigned) [Example 169]",≥ 1000 nM
8,"CC1(C)C[C@@H](C(=O)Nc2cnc(C(=O)NC3CC3)c(C(F)F)c2)c2cnc3cc(Cl)nn3c21 (single isomer, unassigned) [Example 172]",≥ 1000 nM
9,"CC1(C)CC(C(=O)Nc2cc(C(F)F)c(-c3ccno3)c(=O)[nH]2)c2cnc3cc(Cl)nn3c21 (stereo not shown) [Example 60, 2-chloro-N-(4-(difluoromethyl)-5-(isoxazol-5-yl)-6-oxo-1,6-dihydropyridin-2-yl)-8,8-dimethyl-7,8-dihydro-6H-cyclopenta[e]pyrazolo[1,5-a]pyrimidine-6-carboxamide]",100 to 1000 nM
10,"CC1(C)CC(C(=O)Nc2cnc(-n3nccn3)c(C#N)c2)c2cnc3cc(F)nn3c21 (single isomer, unassigned) [Example 88, N-(5-cyano-6-(2H-1,2,3-triazol-2-yl)pyridin-3-yl)-2-fluoro-8,8-dimethyl-7,8-dihydro-6H-cyclopenta[e]pyrazolo[1,5-a]pyrimidine-6-carboxamide]",10 to 100 nM
11,"CC1(C)C[C@@H](C(=O)Nc2cnc(-n3nccn3)c(C#N)c2)c2cnc3cc(C(F)F)nn3c21 (single isomer, unassigned) [Example 129, N-(5-cyano-6-(2H-1,2,3-triazol-2-yl)pyridin-3-yl)-2-(difluoromethyl)-8,8-dimethyl-7,8-dihydro-6H-cyclopenta[e]pyrazolo[1,5-a]pyrimidine-6-carboxamide]",100 to 1000 nM
12,"CC1(C)CC(C(=O)Nc2cnc(-n3cc(C4COC4)nn3)c(Cl)c2)c2cnc3cc(Cl)nn3c21 (stereo not shown) [Example 119, 2-chloro-N-(5-chloro-6-(4-(oxetan-3-yl)-1H-1,2,3-triazol-1-yl)pyridin-3-yl)-8,8-dimethyl-7,8-dihydro-6H-cyclopenta[e]pyrazolo[1,5-a]pyrimidine-6-carboxamide]",100 to 1000 nM
13,"CC1(C)C[C@@H](C(=O)Nc2cnc(OC(F)F)c(Cl)c2)c2cnn3cc(Cl)nc3c21 (single isomer, unassigned) [Example 190, 2-chloro-N-(5-chloro-6-(difluoromethoxy)pyridin-3-yl)-9,9-dimethyl-8,9-dihydro-7H-cyclopenta[d]imidazo[1,2-b]pyridazine-7-carboxamide]",100 to 1000 nM
14,"N#Cc1cc(NC(=O)C2CC3(CC3)c3c2cnc2cc(F)nn32)cnc1OC(F)F (stereo not shown) [Example 82, N-(5-cyano-6-(difluoromethoxy)pyridin-3-yl)-2-fluoro-6,7-dihydrospiro[cyclopenta[e]pyrazolo[1,5-a]pyrimidine-8,1′-cyclopropane]-6-carboxamide]",10 to 100 nM
15,"CC1(C)CC(C(=O)Nc2cc(C(F)F)c(-c3c[nH]cn3)c(=O)[nH]2)c2cnc3cc(Cl)nn3c21 (stereo not shown) [Example 48, 2-chloro-N-(4-(difluoromethyl)-5˜(1H-imidazol-4-yl)-6-oxo-1,6-dihydropyridin-2-yl)-8,8-dimethyl-7,8-dihydro-6H-cyclopenta[e]pyrazolo[1,5-a]pyrimidine-6-carboxamide]",10 to 100 nM
16,"CC1(C)CC(C(=O)Nc2cnc(OC(F)F)c(C#N)c2)c2cnc3cc(Cl)nn3c21 (single isomer, unassigned) [Example 78, 2-chloro-N-(5-cyano-6-(difluoromethoxy)pyridin-3-yl)-8,8-dimethyl-7,8-dihydro-6H-cyclopenta[e]pyrazolo[1,5-a]pyrimidine-6-carboxamide]",100 to 1000 nM
17,"CC1(C)C[C@@H](C(=O)Nc2ccnc(C(F)(F)F)c2)c2cnc3cc(C(F)F)nn3c21 (single isomer, unassigned) [Example 98, 2-(difluoromethyl)-8,8-dimethyl-N-(2-(trifluoromethyl)pyridin-4-yl)-7,8-dihydro-6H-cyclopenta[e]pyrazolo[1,5-a]pyrimidine-6-carboxamide]",≥ 1000 nM
18,"CCO[C@@]1(C(F)(F)F)C[C@@H](C(=O)Nc2cnc(-n3nccn3)c(Cl)c2)c2cnc3cc(Cl)nn3c21 (single isomer, unassigned) [Example 167, (cis)-2-chloro-N-(5-chloro-6-(2H-1,2,3-triazol-2-yl)pyridin-3-yl)-8-ethoxy-8-(trifluoromethyl)-7,8-dihydro-6H-cyclopenta[e]pyrazolo[1,5-a]pyrimidine-6-carboxamide]",100 to 1000 nM
19,"CC1(C)CC(C(=O)Nc2cnc(-n3nccn3)c(Cl)c2)c2cnc3c(F)cnn3c21 (single isomer, unassigned) [Example 100, N-(5-chloro-6-(2H-1,2,3-triazol-2-yl)pyridin-3-yl)-3-fluoro-8,8-dimethyl-7,8-dihydro-6H-cyclopenta[e]pyrazolo[1,5-a]pyrimidine-6-carboxamide]",100 to 1000 nM
20,"Cc1cc2cc(F)c3c(n2n1)C(C)(C)C[C@H]3C(=O)Nc1cnc(-n2nccn2)c(Cl)c1 (single isomer, unassigned) [Example 156, N-(5-chloro-6-(2H-1,2,3-triazol-2-yl)pyridin-3-yl)-5-fluoro-2,8,8-trimethyl-7,8-dihydro-6H-cyclopenta[e]pyrazolo[1,5-a]pyridine-6-carboxamide]",≥ 1000 nM
21,"Cc1c(F)nn2c3c(cnc12)C(C(=O)Nc1cnc(-n2nccn2)c(Cl)c1)CC3(C)C (single isomer, unassigned) [Example 113, N-(5-chloro-6-(2H-1,2,3-triazol-2-yl)pyridin-3-yl)-2-fluoro-3,8,8-trimethyl-7,8-dihydro-6H-cyclopenta[e]pyrazolo[1,5-a]pyrimidine-6-carboxamide]",≥ 1000 nM
22,"C[C@@H](O)c1cnn(-c2ncc(NC(=O)[C@@H]3CC4(CCC4)c4c3cnc3cc(Cl)nn43)cc2Cl)n1 (single isomer, unassigned) [Example 161]",≥ 1000 nM
